Experimental data published in patent publication EP4702982A1, “VITALITY IMPROVING AGENT, COMPOSITION FOR IMPROVING VITALITY, AND FOOD COMPOSITION FOR IMPROVING VITALITY” (Med R&D Co. Ltd, priority 2023, dated 2024).

How the values were obtained:
[1] = tested on: FGF1 gene (fiblobrast growth factor 1); experiment: Quantitative real-time PCR of hair growth-related gene FGF1 in HFDPCs; format: cell-based, human; set-up: key to FGF1: -: Expression was suppressed.; ±: No significant difference was observed in the expression enhancing effects at at least some of the concentrations.; +: A significant difference with p < 0.05 or more was observed in the expression enhancing effects at all concentrations.; ++: A significant difference with p < 0.01 or more was observed in the expression enhancing effects at all concentrations; conditions: for FGF1: extracts at a volume of 1/6,000 or 1/10,000 (Production Examples 1 and 6 at non-cytotoxic concentration), D-pinitol and shikimic acid at 1 µM and 10 µM; for expression enhancing effects for FGF1 (in words): summary of Table 5
Procedure: (§1) The pine needle extract of Production Example 1 was added to the culture medium for HFDPCs, and the expression of hair growth markers was measured by quantitative real-time PCR. As the hair growth markers, CTNNB1 gene (β-catenin), ALPL gene (alkaline phosphatase), and FGF1 gene (fiblobrast growth factor 1) were examined. It is known that β-catenin induces anagen of the hair cycle and promotes the proliferation of keratinocytes. ALPL is a representative hair growth marker in the hair papilla cells. FGF1 is a marker for morphogenesis of hair follicles. HFDPCs were seeded in a 6-well plate at a concentration of 5 × 10^4 cells/well and incubated at 37°C for 24 hours. Subsequently, the culture medium was removed and replaced with a culture medium containing a pine needle extract at a volume of 1/4,000 and 1/2,000. Furthermore, for a comparison, cells treated with a culture medium to which minoxidil (0.1 µM), an existing therapeutic agent for hair loss, was added, were also prepared. Subsequently, after 48 hours, the cells were washed with cold PBS, and total RNA was extracted using an ISOGEN kit (Nippon Gene Co., Ltd.). Subsequently, the total RNA was quantified using a NanoDrop 2000 spectrophotometer (Thermo Fisher Scientific, Inc.), and quantitative real-time PCR analysis was performed. […] Subsequently, real-time PCR was carried out using a 7500 Fast Real-Time PCR system (Software 1.3.1, Thermo Fisher Scientific, Inc.) and TaqMan probes specific for CTNNB1, ALPL, and FGF1. GAPDH was used as an endogenous control, and the 2^- △△Ct method was applied, to calculate the relative amount of mRNA in comparison with GAPDH. The effect of the pine needle extracts of Production Examples 3 to 6 on the hair growth-related genes was examined by the same method as that used in Experimental Example 6. Furthermore, the same examination was carried out for D-pinitol and shikimic acid. The pine needle extracts of Production Examples 3 to 6 were each added to the culture medium for cells at a volume of 1/6,000 or a volume of 1/10,000. The pine needle extracts of Production Examples 1 and 6 were each added to the culture medium for cells at a concentration at which cytotoxicity was not observed. D-pinitol was added to the culture medium for cells at 1 µM and 10 µM. Shikimic acid was added to the culture medium for cells at 1 µM and 10 µM. In the following Table 5, "CTNNB1", "ALPL", and "FGF1" indicate the evaluation results for the expression enhancing effects of each hair growth-related gene. […]

CTNNB1 gene (β-catenin) = experiment: Quantitative real-time PCR of hair growth-related gene CTNNB1 in HFDPCs; format: cell-based, human; set-up: key to CTNNB1: -: Expression was suppressed.; ±: No significant difference was observed in the expression enhancing effects at at least some of the concentrations.; +: A significant difference with p < 0.05 or more was observed in the expression enhancing effects at all concentrations.; ++: A significant difference with p < 0.01 or more was observed in the expression enhancing effects at all concentrations; conditions: for CTNNB1: extracts at a volume of 1/6,000 or 1/10,000 (Production Examples 1 and 6 at non-cytotoxic concentration), D-pinitol and shikimic acid at 1 µM and 10 µM; for expression enhancing effects for CTNNB1 (in words): summary of Table 5
Procedure: as §1

[2] = tested on: ALPL gene (alkaline phosphatase); experiment: Quantitative real-time PCR of hair growth-related gene ALPL in HFDPCs; format: cell-based, human; set-up: key to ALPL: -: Expression was suppressed.; ±: No significant difference was observed in the expression enhancing effects at at least some of the concentrations.; +: A significant difference with p < 0.05 or more was observed in the expression enhancing effects at all concentrations.; ++: A significant difference with p < 0.01 or more was observed in the expression enhancing effects at all concentrations; conditions: for ALPL: extracts at a volume of 1/6,000 or 1/10,000 (Production Examples 1 and 6 at non-cytotoxic concentration), D-pinitol and shikimic acid at 1 µM and 10 µM; for expression enhancing effects for ALPL (in words): summary of Table 5
Procedure: as §1

[3] = tested on: human primary hair papilla cells (HFDPC); experiment: Cytotoxicity (MTT cell viability) in hair papilla cells; format: cell-based; set-up: key: -: No cytotoxicity was observed.; ±: The cell viability was reduced by 40% or more at a volume of 1/100.; +: The cell viability was reduced by 10% or more at a volume of 1/10,000.; ++: The cell viability was reduced by 40% or more at a volume of 1/10,000; conditions: same method as Experimental Example 4
Procedure: The cytotoxicity of the pine needle extract of Production Example 1 was examined. Regarding the cells, human primary hair papilla cells (HFDPC, purchased from PromoCell GmbH), which are mesenchymal cells isolated from the papilla of normal human scalp hair follicles, were used. HFDPCs were seeded on a collagen-coated 96-well plate at a concentration of 5 × 10^4 cells/well and incubated at 37°C in a humidified atmosphere of 5% CO2. As a culture medium, a hair papilla cell growth culture medium to which growth factors (bovine fetal serum, insulin, transferrin, triiodothyronine, bovine pituitary extract, and a cyproterone solution) had been added was used. After 24 hours, the culture medium for the cells was replaced with a culture medium to which a pine needle extract was added at a volume of 0 (control), 1/6,000, 1/5,000, 1/4,000, 1/3,000, 1/2,000, 1/1,000, 1/500, 1/250, or 1/100, and the cells were incubated for 48 hours. […] Specifically, an MTT reagent (5 mg/mL) was added to the cells, the cells were incubated for 8 hours, subsequently 10% sodium dodecyl sulfate (SDS) was added thereto, and the cells were incubated overnight. Thereafter, the absorbance at 570 nm was measured using a microplate reader, and the cell viability was quantified as a proportion (%) of the absorbance with respect to the absorbance of untreated cells. […]

[4] = Body weight and food intake during 7-day oral administration; format: in vivo, ICR mouse; conditions: 20 mg/kg bupropion oral, daily for 7 days
Procedure: In the following Table 6, "LPS" indicates lipopolysaccharide. Furthermore, bupropion administered to a positive control group is an antidepressant. The mice in each group were kept for 7 days to be acclimatized, and then a pine needle extract was orally administered daily for 7 days. Thereafter, neuroinflammation was induced in the brain by a single intraperitoneal administration of LPS, and depression was developed. A tail suspension test was performed the day after the administration of LPS. In the tail suspension test, a SMART 3.0 video image behavior analysis device (Panlab S.L.U.) was used. The brain was removed the day after the tail suspension test, and the hippocampus was further collected and used in the experiment that will be described later.

Row | SMILES | FGF1 [1] | expression enhancing effects for FGF1 (in words) [1] | CTNNB1 (CTNNB1 gene (β-catenin)) | expression enhancing effects for CTNNB1 (in words) (CTNNB1 gene (β-catenin)) | ALPL [2] | expression enhancing effects for ALPL (in words) [2] | Cytotoxicity [3] | Final body weight [4] | Increase in body weight (g / 7 days) [4] | Total amount of food intake (g / 7 days) [4] | Initial body weight ([4]; baseline)
1 | CO[C@H]1[C@H](O)[C@@H](O)[C@@H](O)[C@H](O)[C@@H]1O [D-pinitol] | ++ | exhibited expression enhancing effects | ++ | exhibited expression enhancing effects | - | did not exhibit expression enhancing effects | - |  |  |  | 
2 | O=C(O)C1=C[C@@H](O)[C@@H](O)[C@H](O)C1 [Shikimic acid] | ++ | exhibited expression enhancing effects | + | exhibited expression enhancing effects | ± | did not exhibit expression enhancing effects | - |  |  |  | 
3 | CC(NC(C)(C)C)C(=O)c1cccc(Cl)c1 (stereo not drawn) [bupropion] |  |  |  |  |  |  |  | 35.6 ± 0.7 g | 2.9 ± 0.4 g / 7 days | 25.0 ± 1.2 g / 7 days | 32.7 ± 0.8 g
